Measured values as given in the NIST ThermoML archive (doi:10.1021/je0342825).
± gives the expanded uncertainty stated by the source.

Assays:
[1] = xn = mol fraction of the nth substance listed; settings: 101.3 kPa, Liquid
[2] = 101.3 kPa, Liquid

CC(=O)O [acetic acid] + CO
[1]
Settings	mass density, 293.15 K [kg/m3]	mass density, 298.15 K [kg/m3]	mass density, 303.15 K [kg/m3]	speed of sound, 293.15 K [m/s]	speed of sound, 298.15 K [m/s]	speed of sound, 303.15 K [m/s]	viscosity, 293.15 K [mPa·s]	viscosity, 298.15 K [mPa·s]	viscosity, 303.15 K [mPa·s]
x1 = 0.0498	811.92 ± 0.43	807.17 ± 0.44	802.41 ± 0.45	1133 ± 1	1116 ± 1	1100 ± 1	0.626 ± 0.009	0.583 ± 0.008	0.543 ± 0.008
x1 = 0.1006	831.39 ± 0.41	826.6 ± 0.42	821.79 ± 0.42	1143 ± 1	1127 ± 1	1111 ± 1	0.676 ± 0.009	0.628 ± 0.009	0.585 ± 0.008
x1 = 0.2016	867.61 ± 0.37	862.71 ± 0.38	857.79 ± 0.39	1162 ± 1	1146 ± 1	1130 ± 1	0.784 ± 0.01	0.729 ± 0.01	0.678 ± 0.009
x1 = 0.2995	899.77 ± 0.36	894.77 ± 0.36	889.74 ± 0.37	1178 ± 1	1161 ± 1	1145 ± 1	0.899 ± 0.012	0.825 ± 0.011	0.765 ± 0.01
x1 = 0.401	929.99 ± 0.36	924.88 ± 0.36	919.75 ± 0.37	1189 ± 1	1172 ± 1	1156 ± 1	1.038 ± 0.013	0.954 ± 0.013	0.879 ± 0.012
x1 = 0.4992	956.37 ± 0.37	951.16 ± 0.38	945.92 ± 0.38	1196 ± 2	1179 ± 2	1162 ± 2	1.161 ± 0.015	1.062 ± 0.014	0.975 ± 0.013
x1 = 0.5996	980.68 ± 0.38	975.36 ± 0.38	970.01 ± 0.39	1198 ± 2	1181 ± 2	1164 ± 2	1.274 ± 0.016	1.162 ± 0.015	1.062 ± 0.014
x1 = 0.6998	1001.88 ± 0.41	996.46 ± 0.41	991.01 ± 0.41	1195 ± 2	1178 ± 2	1161 ± 2	1.352 ± 0.017	1.229 ± 0.016	1.124 ± 0.015
x1 = 0.7969	1020.24 ± 0.46	1014.72 ± 0.46	1009.19 ± 0.45	1187 ± 2	1170 ± 2	1153 ± 2	1.38 ± 0.018	1.26 ± 0.017	1.151 ± 0.016
x1 = 0.9	–	1031.06 ± 0.51	1025.45 ± 0.51	–	1156 ± 2	1138 ± 2	–	1.224 ± 0.016	1.126 ± 0.015
x1 = 0.9555	1043.82 ± 0.55	1038.2 ± 0.54	1032.56 ± 0.53	1162 ± 2	1145 ± 2	1128 ± 2	1.283 ± 0.017	1.177 ± 0.016	1.088 ± 0.015
x1 = 1	1049.3 ± 0.57	1043.65 ± 0.56	1038 ± 0.56	1149 ± 2	1132 ± 2	1115 ± 2	1.211 ± 0.016	1.115 ± 0.015	1.034 ± 0.014

CCO [ethanol]
[2]
Settings	mass density [kg/m3]	speed of sound [m/s]	viscosity [mPa·s]
293.15 K	789.75 ± 0.46	1162 ± 1	1.187 ± 0.015
298.15 K	785.46 ± 0.47	1145 ± 1	1.082 ± 0.014
303.15 K	781.15 ± 0.47	1128 ± 1	0.987 ± 0.013
